The text below walks through data of US20160368919A1, “NOVEL PYRIDINE PYRAZINONES AS BET-FAMILY BROMODOMAIN INHIBITORS” (Pfizer Inc., priority 2015, published 2016).

Structures are written as SMILES.

Common to all, as to assay type: cell-based
The test system of experiment [1] is LPS-induced IL-6 production in human whole blood. Put plainly: IL-6 human whole blood (HWB) assay, LPS-stimulated, HTRF detection. As to conditions: 1 ng/ml LPS, 4 hours. Background: In TR-FRET formats the signal depends on donor and acceptor labels being close together.
Another experiment has as its system OPM-2 cells. Put plainly: OPM-2 cell proliferation assay (CellTiter-Glo). The protocol:
MM1.S (dexamethasone sensitive) and OPM-2 cells were purchased from ATCC and maintained in RPMI-1640 medium with 10% fetal bovine serum at 37 degrees, 5% CO2. Cells were seeded at 10,000 cells/well in 100 uL medium. The following day compounds or control vehicle (DMSO) were added at indicated concentrations in 10 ul volume. Compound treated OPM-2 cells and MM1.S cell were analyzed for cell density at 72h and 96h, respectively, using CellTiter-Glo® (CTG) reagent (Promega). The CTG assay measures the amount of ATP present, which indicates the number of viable cells in culture.
A general note: ATP-based viability assays read luminescence as a measure of living cells.

Experiment [2] deals with C4-2 (parental) cells, AR(+). The experiment in a line: CRPC cell proliferation assay (CellTiter-Glo), C4-2. The settings on record: CTG at 96h. The protocol:
(§1) Castrate-Resistant Prostate Cancer (CRPC) Cell Proliferation Assay • Cells were seeded into 96-well plates at 2,000-10,000 cells/well in 100 uL medium. Four AR(+) cell lines (LnCaP, C4-2 (parental), C4-2AR-WT and C4-2AR—F876L) and one AR(−) cell line (DU-145) were studied. Compound treated cells were analyzed for cell density at 96h, using CellTiter-Glo® (CTG) reagent (Promega).

The test system of experiment [3] is C4-2AR-F876L cells, AR(+). The experiment in a line: CRPC cell proliferation assay (CellTiter-Glo), C4-2AR-F876L. As to conditions: CTG at 96h. The protocol:
as §1

The test system of experiment [4] is CRPC cell lines (LnCaP, C4-2, C4-2AR-WT, C4-2AR-F876L, DU-145). Put plainly: CRPC cell proliferation assay, summary over the cell lines. The settings on record: AR(+) cell lines, CTG at 96h. The protocol:
Castrate-Resistant Prostate Cancer (CRPC) Cell Proliferation Assay • Cells were seeded into 96-well plates at 2,000-10,000 cells/well in 100 uL medium. Four AR(+) cell lines (LnCaP, C4-2 (parental), C4-2AR-WT and C4-2AR—F876L) and one AR(−) cell line (DU-145) were studied. Compound treated cells were analyzed for cell density at 96h, using CellTiter-Glo® (CTG) reagent (Promega). […] Example 10 and IBET-151 BET had submicromolar IC50 values in the AR(+) cell lines. The inhibitors maintained potency in C4-2 cells engineered to express wild type (WT) AR receptor (C4-2-AR-WT), as well as cells engineered to express the F876L mutation (C4-2-AR-F876L) that confers resistance to androgen receptor (AR) antagonists.

In the case of `CCC(=O)N(C)c1ccc2nc(NCCC(=O)O)c(=O)n([C@@H](CC)c3ccccc3)c2n1` [Example 10, N-{6-[methyl(propanoyl)amino]-3-oxo-4-[(1S)-1-phenylpropyl]-3,4-dihydropyrido[2,3-b]pyrazin-2-yl}-beta-alanine], the IC50 (usually the concentration that inhibits the measured activity by half) in experiment [1] turned out to be 0.53 µM; in the experiment on OPM-2 cells (Homo sapiens, OPM-2, CTG at 72h) it was 0.006 µM; in experiment [2], 0.5 µM; in experiment [3] it was 0.56 µM. Also, in the experiment with OPM-2 cells (dose dependent manner, FIG. 1.B), the “inhibition of proliferation of OPM-2 cells” value is given as “inhibited proliferation”. The “Max % Inh” value in experiment [2] was 87%; in experiment [3] it was 85%. For the same molecule, in experiment [4], the “IC50 values in the AR(+) cell lines” value was “submicromolar”.
